Data published in patent US7485641B2, “Substituted 3-amino-pyrrolidino-4-lactams” (Pfizer, Inc., priority 2006, dated 2009).
pIC50: −log10 of the molar value. Structures can show the parent of a compound that is named as a salt.

Biological target: T1, DPP-IV (Homo sapiens, UniProt P27487)
T1 construct: purchased Enzyme Systems Products SPE-01
Experiment: In vitro assay for dipeptidyl peptidase inhibition
Format: biochemical
Settings: at 300 nM; n-value given in brackets

T1 sequence (P27487 whole entry, species assumed): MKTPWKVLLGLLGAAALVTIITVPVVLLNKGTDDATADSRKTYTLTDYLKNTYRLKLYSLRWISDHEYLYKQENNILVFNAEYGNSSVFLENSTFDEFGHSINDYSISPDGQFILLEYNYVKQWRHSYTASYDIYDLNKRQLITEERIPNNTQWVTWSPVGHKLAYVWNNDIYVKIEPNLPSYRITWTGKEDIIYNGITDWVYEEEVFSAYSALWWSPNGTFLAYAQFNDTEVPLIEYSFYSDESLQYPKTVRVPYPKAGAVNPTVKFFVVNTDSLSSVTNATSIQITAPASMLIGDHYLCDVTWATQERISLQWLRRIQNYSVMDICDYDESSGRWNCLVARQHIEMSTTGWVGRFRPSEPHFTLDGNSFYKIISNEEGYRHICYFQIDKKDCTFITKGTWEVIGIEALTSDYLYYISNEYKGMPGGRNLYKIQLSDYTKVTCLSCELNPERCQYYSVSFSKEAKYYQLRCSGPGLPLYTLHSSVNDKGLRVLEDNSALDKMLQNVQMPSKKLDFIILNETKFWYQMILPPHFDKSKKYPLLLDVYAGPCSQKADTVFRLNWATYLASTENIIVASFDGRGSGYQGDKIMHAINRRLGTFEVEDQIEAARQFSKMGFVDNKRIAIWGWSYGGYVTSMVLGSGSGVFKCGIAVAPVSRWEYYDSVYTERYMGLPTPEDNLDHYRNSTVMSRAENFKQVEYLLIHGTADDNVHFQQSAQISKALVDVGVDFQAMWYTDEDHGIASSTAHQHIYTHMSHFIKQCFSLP

SMILES	DPP-IV Percent Inhibition at 300 nM
CCOc1ncc2c(n1)CCN(c1ncnc(N3C[C@H](N)[C@@H](N4CCCCC4=O)C3)n1)C2.O=C(O)C(F)(F)F [Example 72, 1-((3S,4S)-4-Amino-1-(4-(2-ethoxy-7,8-dihydropyrido[4,3-d]pyrimidin-6(5H)-yl)-1,3,5-triazin-2-yl)pyrrolidin-3-yl)piperidin-2-onetrifluoroacetate]	13.1%(4)
CC(Oc1cc(N2C[C@H](N)[C@@H](N3CCCCC3=O)C2)ncn1)C(F)(F)F.O=C(O)C(F)(F)F (stereo partly drawn) [Example 93, 1-((3S,4S)-4-Amino-1-(6-(1,1,1-trifluoropropan-2-yloxy)pyrimidin-4-yl)pyrrolidin-3-yl)piperidin-2-onetrifluoroacetate]	13.8%(4)

Same assay, conditions: at 300 nM; n-value given in brackets; read-out: DPP-IV Percent Inhibition at 300 nM

inhibition at 0.3 µM [%]	SMILES
17.9	Cn1nc(C(F)(F)F)c2c1CCN(c1ncnc(N3C[C@H](N)[C@@H](N4CCCCC4=O)C3)n1)C2 [Example 67, 1-((3S,4S)-4-amino-1-(4-(1-methyl-3-(trifluoromethyl)-6,7-dihydro-1H-pyrazolo[4,3-c]pyridin-5(4H)-yl)-1,3,5-triazin-2-yl)pyrrolidin-3-yl)piperidin-2-one]
44.5	N[C@H]1CN(c2cc(N3CCc4noc(C(F)(F)F)c4C3)ncn2)C[C@@H]1N1CCCCC1=O [Example 81, 1-((3S,4S)-4-amino-1-(6-(3-(trifluoromethyl)-6,7-dihydroisoxazolo[4,3-c]pyridin-5(4H)-yl)pyrimidin-4-yl)pyrrolidin-3-yl)piperidin-2-one trifluoroacetate]
32.2	N[C@H]1CN(c2cc(OC3CCCC3)ncn2)C[C@@H]1N1CCCCC1=O [Example 91, 1-((3S,4S)-4-Amino-1-(6-(cyclopentyloxy)pyrimidin-4-yl)pyrrolidin-3-yl)piperidin-2-onetrifluoroacetate]
28.9	N[C@H]1CN(c2cc(OCC(F)(F)F)ncn2)C[C@@H]1N1CCCCC1=O [Example 92, 1-((3S,4S)-4-Amino-1-(6-(2,2,2-trifluoroethoxy)pyrimidin-4-yl)pyrrolidin-3-yl)piperidin-2-one trifluoroacetate]

Same assay, conditions: n-value given in brackets; read-out: DPP-IV IC50

pIC50	SMILES
5.90	COc1cc2c(cc1OC)CN(c1cc(N3C[C@H](N)[C@@H](N4CCCC4=O)C3)ncn1)CC2 [Example 60, 1-((3S,4S)-4-Amino-1-(6-(3,4-dihydro-6,7-dimethoxyisoquinolin-2(1H)-yl)pyrimidin-4-yl)pyrrolidin-3-yl)pyrrolidin-2-onehydrochloride]
6.10	N[C@H]1CN(c2cc(N3CCc4ccccc4CC3)ncn2)C[C@@H]1N1CCCC1=O [Example 61, 1-((3S,4S)-4-Amino-1-(6-(1,2,4,5-tetrahydrobenzo[d]azepin-3-yl)pyrimidin-4-yl)pyrrolidin-3-yl)pyrrolidin-2-onehydrochloride]
6.19	N[C@H]1CN(c2cc(N3CCc4ncsc4C3)ncn2)C[C@@H]1N1CCCC1=O [Example 62, 1-((3S,4S)-4-Amino-1-(6-(6,7-dihydrothiazolo[5,4-c]pyridin-5(4H)-yl)pyrimidin-4-yl)pyrrolidin-3-yl)pyrrolidin-2-onedihydrochloride]
5.70	N[C@H]1CN(c2cc(N3CCc4cncnc4C3)ncn2)C[C@@H]1N1CCCC1=O [Example 63, 1-((3S,4S)-4-Amino-1-(6-(5,6-dihydropyrido[3,4-d]pyrimidin-7(8H)-yl)pyrimidin-4-yl)pyrrolidin-3-yl)pyrrolidin-2-onedihydrochloride]
5.61	N[C@H]1CN(c2cc(N3CCc4nc[nH]c4C3)ncn2)C[C@@H]1N1CCCC1=O [Example 64, 1-((3S,4S)-4-Amino-1-(6-(6,7-dihydro-3H-imidazo[4,5-c]pyridin-5(4H)-yl)pyrimidin-4-yl)pyrrolidin-3-yl)pyrrolidin-2-onedihydrochloride]
6.26	N[C@H]1CN(c2cc(N3CCc4sccc4C3)ncn2)C[C@@H]1N1CCCC1=O [Example 65, 1-((3S,4S)-4-Amino-1-(6-(6,7-dihydrothieno[3,2-c]pyridin-5(4H)-yl)pyrimidin-4-yl)pyrrolidin-3-yl)pyrrolidin-2-onehydrochloride]
6.40	N[C@H]1CN(c2cc(N3CCc4[nH]ncc4C3)ncn2)C[C@@H]1N1CCCC1=O [Example 66, 1-((3S,4S)-4-Amino-1-(6-(6,7-dihydro-1H-pyrazolo[4,3-c]pyridin-5(4H)-yl)pyrimidin-4-yl)pyrrolidin-3-yl)pyrrolidin-2-onedihydrochloride]
6.85	N[C@H]1CN(c2ncnc(N3CCS(=O)(=O)CC3)n2)C[C@@H]1N1CCCCC1=O [Example 68, 1-{(3S,4S)-4-Amino-1-[4-(1,1-dioxo-6-thiomorpholin-4-yl)-[1,3,5]triazin-2-yl]-pyrrolidin-3-yl}-piperidin-2-onetrifluoroacetate]
5.97	N[C@H]1CN(c2cc(N3CCS(=O)(=O)CC3)ncn2)C[C@@H]1N1CCCC1=O [Example 69, 1-((3S,4S)-4-Amino-1-[6-(1,1-dioxo-6-thiomorpholin-4-yl)-pyrimidin-4-yl]-pyrrolidin-3-yl)pyrrolidin-2-onedihydrochloride]
7.13	N[C@H]1CN(c2cc(NC3CC3)ncn2)C[C@@H]1N1CCCCC1=O [Example 73, 1-[(3S,4S)-4-Amino-1-(6-cyclopropylamino-pyrimidin-4-yl)-pyrrolidin-3-yl]-piperidin-2-onedihydrochloride]
5.85	N[C@H]1CN(c2cc(NC3CC3)ncn2)C[C@@H]1N1CCCC1=O [Example 74, 1-((3S,4S)-4-Amino-1-(6-cyclopropylamino-pyrimidin-4-yl)pyrrolidin-3-yl)pyrrolidin-2-onetrihydrochloride]
7.63	N[C@H]1CN(c2ncnc(N3CCc4nocc4C3)n2)C[C@@H]1N1CCCCC1=O [Example 76, 1-{(3S,4S)-4-Amino-1-[4-(6,7-dihydro-4H-isoxazolo[4,3-c]pyridine-5-yl)-[1,3,5]triazin-2-yl]-pyrrolidin-3-yl}-piperidin-2-one trifluoroacetate]
7.47	N[C@H]1CN(c2cc(N3CCc4nocc4C3)nc(C(F)(F)F)n2)C[C@@H]1N1CC(F)(F)CCC1=O [Example 77, 1-{(3S,4S)-4-amino-1-[6-(6,7-dihydro-4H-isoxazolo[4,3-c]pyridin-5-yl)-2-trifluoromethyl-pyrimidin-4-yl]-pyrrolidin-3-yl}-5,5-difluoro-piperidin-2-one]
7.40	N[C@H]1CN(c2cc(N3CCc4nocc4C3)nc(C(F)(F)F)n2)C[C@@H]1N1CCCCC1=O [Example 78, 1-((3S,4S)-4-amino-1-(6-(6,7-dihydroisoxazolo[4,3-c]pyridin-5(4H)-yl)-2-(trifluoromethyl)pyrimidin-4-yl)pyrrolidin-3-yl)piperidin-2-one]
7.21	N[C@H]1CN(c2ncnc(N3CCc4nocc4C3)c2F)C[C@@H]1N1CCCCC1=O [Example 79, 1-((3S,4S)-4-amino-1-(6-(6,7-dihydroisoxazolo[4,3-c]pyridin-5(4H)-yl)-5-fluoropyrimidin-4-yl)pyrrolidin-3-yl)piperidin-2-one]
7.54	N[C@H]1CN(c2cc(-c3ccccc3)ncn2)C[C@@H]1N1CC(F)(F)CCC1=O [Example 82, 1-((3S,4S)-4-amino-1-(6-phenylpyrimidin-4-yl)pyrrolidin-3-yl)-5,5-difluoropiperidin-2-one trifluoroacetate]
7.47	Cc1nc(-c2ccccc2)cc(N2C[C@H](N)[C@@H](N3CC(F)(F)CCC3=O)C2)n1 [Example 83, 1-((3S,4S)-4-amino-1-(2-methyl-6-phenylpyrimidin-4-yl)pyrrolidin-3-yl)-5,5-difluoropiperidin-2-one]
7.41	N[C@H]1CN(c2ncnc(-c3ccccc3)n2)C[C@@H]1N1CC(F)(F)CCC1=O [Example 84, 1-((3S,4S)-4-amino-1-(4-phenyl-1,3,5-triazin-2-yl)pyrrolidin-3-yl)-5,5-difluoropiperidin-2-one trifluoroacetate]
7.23	N[C@H]1CN(c2ncnc(-c3ccccc3)n2)C[C@@H]1N1CCCCC1=O [Example 85, 1-[(3S,4S)-4-Amino-1-(4-phenyl-[1,3,5]triazin-2-yl)-pyrrolidin-3-yl]-piperidin-2-one hydrochloride]
7.26	COc1ccc(-c2cc(N3C[C@H](N)[C@@H](N4CCCCC4=O)C3)ncn2)cc1 [Example 86, 1-{(3S,4S)-4-Amino-1-[6-(4-methoxy-phenyl)-pyrimidin-4-yl]-pyrrolidin-3-yl}-piperidin-2-one hydrochloride]
7.41	COc1ccc(-c2cc(N3C[C@H](N)[C@@H](N4CCCCC4=O)C3)ncn2)cn1 [Example 87, 1-{(3S,4S)-4-Amino-1-[6-(6-methoxy-pyridin-3-yl)-pyrimidin-4-yl]pyrrolidin-3-yl}-piperidin-2-one dihydrochloride]
6.50	N[C@H]1CN(c2cc(Oc3cccc(F)c3)ncn2)C[C@@H]1N1CCCCC1=O [Example 88, 1-((3S,4S)-4-amino-1-(6-(3-fluorophenoxy)pyrimidin-4-yl)pyrrolidin-3-yl)piperidin-2-one]
6.50	CCCOc1cc(N2C[C@H](N)[C@@H](N3CCCCC3=O)C2)ncn1 [Example 89, 1-((3S,4S)-4-Amino-1-(6-propoxypyrimidin-4-yl)pyrrolidin-3-yl)piperidin-2-one trifluoroacetate]

SMILES	pIC50
N[C@H]1CN(c2ncnc(N3CCc4sccc4C3)n2)C[C@@H]1N1CCCCC1=O [Example 71, 1-{(3S,4S)-4-Amino-1-[4-(6,7-dihydro-4H-thieno[3,2-c]pyridine-5-yl)-[1,3,5]triazin-2-yl]-pyrrolidin-3-yl}-piperidin-2-onetrifluoroacetate]	6.86
N[C@H]1CN(c2ncnc(NC3CCCCC3)n2)C[C@@H]1N1CCCCC1=O [Example 75, 1-[(3S,4S)-4-Amino-1-(4-cyclohexylamino-[1,3,5]triazin-2-yl)-pyrrolidin-3-yl]-piperidin-2-onetrifluoroacetate]	6.77
CCC[C@H](C)Oc1cc(N2C[C@H](N)[C@@H](N3CCCCC3=O)C2)ncn1 [Example 90, 1-((3S,4S)-4-Amino-1-(6-((S)-pentan-2-yloxy)pyrimidin-4-yl)pyrrolidin-3-yl)piperidin-2-onetrifluoroacetate]	5.99
